The results in this text go back to paper PMC6522510 (Nature Communications, 2019).

Common to all, as to assay: cells
What all share (set-up): species or system AML cell lines (8); Secondary HTS, 10-point dose-response in triplicate, Cell Titer Glo viability, four-parameter fit EC50

For test [1], the system named is M07e. The following applies: M-07e, read-out: M07e.
The test system of test [2] is ML-2. The note with it: Homo sapiens, read-out: ML-2.
Test [3] relates to CMK. The following applies: Homo sapiens, read-out: CMK.
Test [4] relates to CMS. The following applies: read-out: CMS.
The test system of test [5] is CHRF288-11. The note with it: read-out: CHRF288-11.
Test [6] has as its system MV4-11. The note with it: Homo sapiens, read-out: MV4-11.
Test [7] relates to MOLM-13. The following applies: Homo sapiens, read-out: MOLM-13.
For test [8], the system named is U937. The following applies: Homo sapiens, read-out: U937.

Where two headings read alike, the source gives them in different places.

In the case of `Cc1noc(-c2ccc(-c3ccc(CC(=O)O)cc3)cc2)c1NC(=O)O[C@H](C)c1ccccc1Cl` [SJ000833864, AM-966], the EC50 in test [1] (72 h) is over 10 µM; in test [2] (ML-2, 72 h), over 10 µM; in test [3] (CMK, 72 h), over 10 µM; in test [4] (72 h), over 10 µM; in test [5] (72 h), over 10 µM; in test [6] (MV4-11, 72 h), over 10 µM. The EC50 in test [7] (MOLM-13, 72 h) was 0.018 µM; in test [8] (U-937, 72 h), over 10 µM.

`C=CC(=O)Nc1cccc(Nc2nc(Nc3ccc(OCCOC)cc3)ncc2F)c1` [SJ000833882, CC-292 (AVL-292)]: the EC50 in test [1] (72 h) is 9.5 µM; in test [2] (ML-2, 72 h), over 10 µM; in test [3] (CMK, 72 h) it was 4 µM; in test [4] (72 h) it was over 10 µM; in test [5] (72 h), over 10 µM; in test [6] (MV4-11, 72 h), over 10 µM. The EC50 was over 10 µM in test [7] (MOLM-13, 72 h) and 4.8 µM in test [8] (U-937, 72 h).

For `CN(c1ncccc1CNc1nc(Nc2ccc3c(c2)CC(=O)N3)ncc1C(F)(F)F)S(C)(=O)=O` [SJ000833883, PF-00562271], the EC50 is 6.2 µM in test [1] (72 h); 0.5 µM in test [2] (ML-2, 72 h); 2.6 µM in test [3] (CMK, 72 h); over 10 µM in test [4] (72 h); over 10 µM in test [5] (72 h); over 10 µM in test [6] (MV4-11, 72 h). The EC50 was over 10 µM in test [7] (MOLM-13, 72 h) and 3.9 µM in test [8] (U-937, 72 h).

As to `N#Cc1ccc(COC[C@H]2O[C@@H](n3c(NCc4ccc(Cl)c(Cl)c4)nc4c(N)ncnc43)[C@H](O)[C@@H]2O)cc1` [SJ000833885, VER-155008], the EC50 is over 10 µM in test [1] (72 h); over 10 µM in test [2] (ML-2, 72 h); over 10 µM in test [3] (CMK, 72 h); 5.9 µM in test [4] (72 h); over 10 µM in test [5] (72 h); over 10 µM in test [6] (MV4-11, 72 h). The EC50 in test [7] (MOLM-13, 72 h) was over 10 µM; in test [8] (U-937, 72 h), over 10 µM.

For `N[C@@H]1CCCN(c2c(/C=C3\SC(=O)NC3=O)cccc2-c2ccccc2)C1` [SJ000833889, AZD1208], the EC50 in test [1] (72 h) was over 10 µM; in test [2] (ML-2, 72 h), over 10 µM; in test [3] (CMK, 72 h), over 10 µM; in test [4] (72 h), over 10 µM; in test [5] (72 h) it was over 10 µM; in test [6] (MV4-11, 72 h) it was over 10 µM. The EC50 in test [7] (MOLM-13, 72 h) is over 10 µM; in test [8] (U-937, 72 h) it was over 10 µM.

As for `O=c1cc(N2CCOCC2)oc2c(-c3cccc4c3sc3ccccc34)cccc12` [SJ000834137, NU 7441], the EC50 in test [1] (72 h) is 0.3 µM; in test [2] (ML-2, 72 h), over 10 µM; in test [3] (CMK, 72 h), over 10 µM; in test [4] (72 h), over 10 µM; in test [5] (72 h), over 10 µM; in test [6] (MV4-11, 72 h) it was over 10 µM. The EC50 was over 10 µM in test [7] (MOLM-13, 72 h) and over 10 µM in test [8] (U-937, 72 h).

Turning to `O=C(Nc1ncc([N+](=O)[O-])s1)c1ccc([N+](=O)[O-])c(Cl)c1` [SJ000834139, SM-7368], the EC50 in test [1] (72 h cell viability), in test [2] (72 h cell viability), in test [3] (72 h cell viability), in test [4] (72 h cell viability), in test [5] (72 h cell viability) and in test [6] (72 h cell viability) was over 10 µM throughout. The EC50 was over 10 µM in test [7] (72 h cell viability) and 6.8 µM in test [8] (U-937, 72 h cell viability).

Take `CCOC(=O)C1=C(C)NC2=C(C(=O)CC(C)(C)C2)C1c1ccc(-c2ccccc2)cc1` (stereo not shown) [SJ000834140, ITD-1]: the EC50 in test [1] (72 h) was over 10 µM; in test [2] (ML-2, 72 h) it was over 10 µM; in test [3] (CMK, 72 h), over 10 µM; in test [4] (72 h), over 10 µM; in test [5] (72 h), over 10 µM; in test [6] (MV4-11, 72 h), over 10 µM. In addition, the EC50 in test [7] (MOLM-13, 72 h) was over 10 µM; in test [8] (U-937, 72 h) it was over 10 µM.

Take `CCN1CCN(CC(=O)Nc2ccc(-c3cccc4c(=O)cc(N5CCOCC5)oc34)c3sc4ccccc4c23)CC1` [SJ000834141, KU-0060648]: the EC50 in test [1] (72 h) is 4 µM; in test [2] (ML-2, 72 h), 0.43 µM; in test [3] (CMK, 72 h), 0.27 µM; in test [4] (72 h), 2.8 µM; in test [5] (72 h), 0.78 µM; in test [6] (MV4-11, 72 h), over 10 µM. Moreover, the EC50 in test [7] (MOLM-13, 72 h) amounted to 0.47 µM; in test [8] (U-937, 72 h) it was 3 µM.

Turning to `Cc1ccc(NCCCc2ccccc2)c(N)c1` [SJ000834143, JSH-23], the EC50 in test [1] (72 h) was over 10 µM; in test [2] (ML-2, 72 h), over 10 µM; in test [3] (CMK, 72 h), 8.7 µM; in test [4] (72 h), over 10 µM; in test [5] (72 h) it was over 10 µM; in test [6] (MV4-11, 72 h), over 10 µM. Also, the EC50 in test [7] (MOLM-13, 72 h) was over 10 µM; in test [8] (U-937, 72 h) it was over 10 µM.

`O=C(Nc1cc(Cl)cc2c1[nH]c1cnccc12)c1cccnc1` [SJ000834145, PS-1145]: the EC50 was over 10 µM in test [1] (72 h); over 10 µM in test [2] (ML-2, 72 h); over 10 µM in test [3] (CMK, 72 h); over 10 µM in test [4] (72 h); over 10 µM in test [5] (72 h); over 10 µM in test [6] (MV4-11, 72 h). The EC50 in test [7] (MOLM-13, 72 h) is over 10 µM; in test [8] (U-937, 72 h) it was over 10 µM.

For `c1ccc2c(-c3cnn4cc(-c5ccc(N6CCNCC6)cc5)cnc34)ccnc2c1` [SJ000834146, LDN-193189], the EC50 in test [1] (72 h) worked out at 0.62 µM; in test [2] (ML-2, 72 h), 0.18 µM; in test [3] (CMK, 72 h) it was 1.1 µM; in test [4] (72 h) it was 0.53 µM; in test [5] (72 h) it was 0.36 µM; in test [6] (MV4-11, 72 h), 0.19 µM. Besides, the EC50 in test [7] (MOLM-13, 72 h) was 0.19 µM; in test [8] (U-937, 72 h), 0.19 µM.

With `CC(C)c1cccc(C(C)C)c1N1C(=O)c2ccc(O)cc2C1=O` [SJ000834149, 5HPP-33], the EC50 is over 10 µM in test [1] (72 h); 5.7 µM in test [2] (ML-2, 72 h); over 10 µM in test [3] (CMK, 72 h); 8.4 µM in test [4] (72 h); over 10 µM in test [5] (72 h); over 10 µM in test [6] (MV4-11, 72 h). The EC50 in test [7] (MOLM-13, 72 h) is over 10 µM; in test [8] (U-937, 72 h), 6.7 µM.

With `c1ccc(-c2nn3c(c2-c2ccnc4cc(OCCN5CCOCC5)ccc24)CCC3)nc1` [SJ000834150, LY2109761], the EC50 was over 10 µM in test [1] (72 h); over 10 µM in test [2] (ML-2, 72 h); over 10 µM in test [3] (CMK, 72 h); over 10 µM in test [4] (72 h); over 10 µM in test [5] (72 h); over 10 µM in test [6] (MV4-11, 72 h). Moreover, the EC50 in test [7] (MOLM-13, 72 h) is over 10 µM; in test [8] (U-937, 72 h), over 10 µM.

As to `COc1ccc([C@@]23Oc4cc(OC)cc(OC)c4[C@]2(O)[C@H](O)[C@H](C(=O)N(C)C)[C@H]3c2ccccc2)cc1` [SJ000834151, ROCAGLAMIDE A], the EC50 in test [1] (72 h) was 0.031 µM; in test [2] (ML-2, 72 h), 0.044 µM; in test [3] (CMK, 72 h), 0.021 µM; in test [4] (72 h) it was 0.017 µM; in test [5] (72 h) it was 0.014 µM; in test [6] (MV4-11, 72 h), over 10 µM. For the same compound, the EC50 in test [7] (MOLM-13, 72 h) was 0.018 µM; in test [8] (U-937, 72 h) it was 0.053 µM.

In the case of `CN1CCN(c2cc(C(=O)Nc3ccc4c(c3)-c3c(c(C(N)=O)nn3-c3ccc(F)cc3)CC4)c(Cl)cn2)CC1` [SJ000834153, PHA 408], the EC50 was 5.2 µM in test [1] (72 h); over 10 µM in test [2] (ML-2, 72 h); over 10 µM in test [3] (CMK, 72 h); over 10 µM in test [4] (72 h); over 10 µM in test [5] (72 h); over 10 µM in test [6] (MV4-11, 72 h). Also, the EC50 in test [7] (MOLM-13, 72 h) was over 10 µM; in test [8] (U-937, 72 h), 9.2 µM.

As to `Nc1nc(NC2CC2)cc(-c2cccc(Cl)c2Cl)n1` [SJ000834160, TH588], the EC50 in test [1] (72 h) is over 10 µM; in test [2] (ML-2, 72 h), 10 µM; in test [3] (CMK, 72 h) it was 4.8 µM; in test [4] (72 h) it was over 10 µM; in test [5] (72 h), over 10 µM; in test [6] (MV4-11, 72 h), over 10 µM. Besides, the EC50 in test [7] (MOLM-13, 72 h) was over 10 µM; in test [8] (U-937, 72 h) it was 3 µM.

On to `O=c1cc(N2CCOCC2)oc2c1ccc1ccccc12` [SJ000834163, NU 7026], for which the EC50 in test [1] (72 h) was over 10 µM; in test [2] (ML-2, 72 h), over 10 µM; in test [3] (CMK, 72 h), over 10 µM; in test [4] (72 h), over 10 µM; in test [5] (72 h) it was over 10 µM; in test [6] (MV4-11, 72 h) it was over 10 µM. In addition, the EC50 was over 10 µM in test [7] (MOLM-13, 72 h) and over 10 µM in test [8] (U-937, 72 h).

With `Cc1ccc(S(=O)(=O)/C=C/C#N)cc1` [SJ000834165, BAY 11-7082], the EC50 stood at 3.3 µM in test [1] (72 h); 0.68 µM in test [2] (ML-2, 72 h); 4.5 µM in test [3] (CMK, 72 h); 3.6 µM in test [4] (72 h); 1.8 µM in test [5] (72 h); 1.8 µM in test [6] (MV4-11, 72 h). The EC50 was 1.3 µM in test [7] (MOLM-13, 72 h) and 0.5 µM in test [8] (U-937, 72 h).

For the compound `COc1cc(C(=O)NC2CCN(C)CC2)c(F)cc1Nc1ncc2c(n1)N(C1CCCC1)CC(F)(F)C(=O)N2C` [TAK-960], the EC50 in test [1] (72 h) was over 10 µM; in test [2] (ML-2, 72 h), over 10 µM; in test [3] (CMK, 72 h), over 10 µM; in test [4] (72 h) it was over 10 µM; in test [5] (72 h), over 10 µM; in test [6] (MV4-11, 72 h), over 10 µM. Also, the EC50 in test [7] (MOLM-13, 72 h) is over 10 µM; in test [8] (U-937, 72 h) it was over 10 µM.
